pIC50: −log10 of the molar value. Where a SMILES comes first, the peptide text is derived from it. Bridges are numbered along the chain shown (N, C = ends). Where no end group is shown, it is not given here.
Columns and labels:
[1] = biological target: T1, rat PAC1 receptor (Rattus norvegicus, UniProt P32215); assay: LANCE Ultra cAMP accumulation antagonist assay in RG-2 cells; format: cell-based;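 also: RG-2 rat glioma cells endogenously expressing PAC1, test peptide preincubated 30 min, then PAC1 agonist added at its EC80 for 15 min, cAMP accumulation read by LANCE Ultra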
T1 construct: SHSY-5Y (human neuroblastoma cell line) and RG-2 (rat glioma cell line) cells endogenously express human and rat PAC1 receptors, respectively; endogenous in cells; host or cells: RG-2 rat glioma cells
T1 sequence (P32215 20-523): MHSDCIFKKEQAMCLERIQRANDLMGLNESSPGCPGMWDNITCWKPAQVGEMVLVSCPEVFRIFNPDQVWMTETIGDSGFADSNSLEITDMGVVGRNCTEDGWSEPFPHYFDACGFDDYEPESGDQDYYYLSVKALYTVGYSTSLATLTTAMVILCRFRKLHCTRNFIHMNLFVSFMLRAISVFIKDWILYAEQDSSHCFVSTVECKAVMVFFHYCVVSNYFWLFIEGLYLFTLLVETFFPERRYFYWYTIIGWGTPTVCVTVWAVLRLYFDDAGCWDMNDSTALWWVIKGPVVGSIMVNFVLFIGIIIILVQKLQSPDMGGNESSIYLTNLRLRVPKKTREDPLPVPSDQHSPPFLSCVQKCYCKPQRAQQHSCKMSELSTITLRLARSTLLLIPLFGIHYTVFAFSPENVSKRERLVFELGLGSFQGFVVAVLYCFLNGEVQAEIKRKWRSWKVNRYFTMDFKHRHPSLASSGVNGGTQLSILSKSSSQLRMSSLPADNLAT

[2] = biological target: T2, human PAC1 receptor (Homo sapiens, UniProt P41586); assay: LANCE Ultra cAMP accumulation antagonist assay in SHSY-5Y cells; format: cell-based;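 also: inhibition of cAMP accumulation evoked by PAC1 agonist at its EC80 in SHSY-5Y cells endogenously expressing receptor, 30 min preincubation then 15 min agonist, TR-FRET readout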
T2 construct: SHSY-5Y (human neuroblastoma cell line) and RG-2 (rat glioma cell line) cells endogenously express human and rat PAC1 receptors, respectively; endogenous in cells; host or cells: SHSY-5Y human neuroblastoma cells
T2 sequence (P41586 21-468): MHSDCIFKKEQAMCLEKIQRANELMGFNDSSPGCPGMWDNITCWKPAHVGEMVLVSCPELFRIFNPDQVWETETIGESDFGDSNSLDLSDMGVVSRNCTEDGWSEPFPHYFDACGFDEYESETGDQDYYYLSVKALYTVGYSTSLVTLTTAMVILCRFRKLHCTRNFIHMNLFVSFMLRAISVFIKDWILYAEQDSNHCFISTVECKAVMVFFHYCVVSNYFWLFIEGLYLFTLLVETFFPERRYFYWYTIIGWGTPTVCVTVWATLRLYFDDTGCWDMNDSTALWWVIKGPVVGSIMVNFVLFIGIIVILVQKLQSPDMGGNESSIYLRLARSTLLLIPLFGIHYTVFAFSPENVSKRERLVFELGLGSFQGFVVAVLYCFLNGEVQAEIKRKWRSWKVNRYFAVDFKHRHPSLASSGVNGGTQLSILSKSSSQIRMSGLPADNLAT

Compound | pIC50 [1] | pIC50 [2]
CDATCQFRKAIDDCQKQAHHSNVPGSVFKACMLQKKKEFKAG-NH2 (disulfide 1-5, 14-31) [compound 103] | 9.00 to 11.00 | 7.00 to 9.00
CDATCQFRKAIDDCMLFSWHSNVPGSVFKACMKQKKKEFKAG-NH2 (disulfide 1-5, 14-31) [compound 131] | 9.00 to 11.00 | 9.00 to 11.00
CDATCQFRKAIDDCAWFALHSNVPGSVFKACMKQKKKEFKAG-NH2 (disulfide 1-5, 14-31) [compound 91] | 9.00 to 11.00 | 9.00 to 11.00
CDATCQFRKAIDDCAKQAHHANVPGSVFKACMKQKKKEFKAG-NH2 (disulfide 1-5, 14-31) [compound 13] | 9.00 to 11.00 | 9.00 to 11.00
CDATCQFRKAIDDCYWQAIHANVPGSVWKACMKQKKKEFKAG-NH2 (disulfide 1-5, 14-31) [compound 138] | 9.00 to 11.00 | 9.00 to 11.00
CSCC[C@@H]1NC(=O)[C@H](C)NC(=O)[C@H](C(C)C)NC(=O)[C@H](CCCCN)NC(=O)[C@H](CCCCN)NC(=O)[C@H](Cc2ccc(O)cc2)NC(=O)[C@H](CC(C)C)NC(=O)[C@@H](NC(=O)[C@H](C)NC(=O)[C@@H](NC(=O)[C@H](CC(C)C)NC(=O)CNC(=O)[C@H](CCCCN)NC(=O)[C@H](CCCNC(=N)N)NC(=O)[C@H](Cc2ccc(O)cc2)NC(=O)[C@H](CCC(N)=O)NC(=O)[C@@H]2CSSC[C@H](N)C(=O)N[C@@H](CC(=O)O)C(=O)N[C@@H](C)C(=O)N[C@@H]([C@@H](C)O)C(=O)N2)C(C)C)CSSC[C@@H](C(=O)N[C@@H](CCSC)C(=O)N[C@@H](CCCCN)C(=O)N[C@@H](CCC(N)=O)C(=O)N[C@@H](CCCCN)C(=O)N[C@@H](CCCCN)C(=O)N[C@@H](CCCCN)C(=O)N[C@@H](CCC(=O)O)C(=O)N[C@@H](Cc2c[nH]c3ccccc23)C(N)=O)NC(=O)[C@H](C)NC(=O)[C@H](CCCCN)NC(=O)[C@H](Cc2ccccc2)NC(=O)[C@H](C(C)C)NC(=O)[C@H](CO)NC(=O)[C@H](Cc2ccc(O)cc2)NC(=O)[C@H](CCCNC(=N)N)NC(=O)[C@H](CCCCN)NC(=O)[C@H](CCC(N)=O)NC1=O [compound 427] (H-CDATCQYRKGLVACLYKKVAMQKRYSVFKACMKQKKKEW-NH2; disulfide 1-5, 14-31) | 7.00 to 9.00 | 7.00 to 9.00
CDATCQFRKAIDDCIFWAAHSNVPGSVFKACMKQKKKEFKAG-NH2 (disulfide 1-5, 14-31) [compound 123] | 9.00 to 11.00 | 9.00 to 11.00
CDATCQFRKAIDDCQKQAHHSNVPGSVFKACLVQKKKEFKAG-NH2 (disulfide 1-5, 14-31) [compound 101] | 7.00 to 9.00 | 7.00 to 9.00
SDATSQYRKGLVACLYKKVAMQKRYSVFKACMKQKKKEWKAG-NH2 (disulfide 14-31) [compound 426] | 9.00 to 11.00 | 7.00 to 9.00
CDATCQFRKAIDDCYYRSWHSNVPGSVFKACMKQRKKRWLAG-NH2 (disulfide 1-5, 14-31) [compound 69] | 9.00 to 11.00 | 9.00 to 11.00
CDATCQFRKAIDDCVRQAHHSNVPGSVFKACMKQKKKEWKAG (disulfide 1-5, 14-31) [compound 82] | 9.00 to 11.00 | 9.00 to 11.00
CDATCQFRKAIDDCYYRSWHSNVPGSVFKACMKQKKKEFKAG (disulfide 1-5, 14-31) [compound 64] | 9.00 to 11.00 | 7.00 to 9.00
CDATCQFRKAIDDCQKQAHHSNVPGSVFKVCMKQKKKEFKAG-NH2 (disulfide 1-5, 14-31) [compound 211] | 9.00 to 11.00 | 7.00 to 9.00
CDATCQFRKAIDDCFTWAWHSNVPGSVFKACMKQKKKEFKAG-NH2 (disulfide 1-5, 14-31) [compound 74] | 9.00 to 11.00 | 9.00 to 11.00
CDATCQFRKAIDDCVWKAFHANVPGSVFKACMKQKKKEFKAG-NH2 (disulfide 1-5, 14-31) [compound 118] | 9.00 to 11.00 | 9.00 to 11.00
CC[C@H](C)[C@H](NC(=O)[C@H](C)NC(=O)[C@H](CCCCN)NC(=O)[C@H](CCCNC(=N)N)NC(=O)[C@H](Cc1ccccc1)NC(=O)[C@H](CCC(N)=O)NC(=O)[C@@H]1CSSC[C@H](NC(C)=O)C(=O)N[C@@H](CC(=O)O)C(=O)N[C@@H](C)C(=O)N[C@@H]([C@@H](C)O)C(=O)N1)C(=O)N[C@@H](CC(=O)O)C(=O)N[C@@H](CC(=O)O)C(=O)N[C@H]1CSSC[C@@H](C(=O)N[C@@H](CCSC)C(=O)N[C@@H](CCCCN)C(=O)N[C@@H](CCC(N)=O)C(=O)N[C@@H](CCCCN)C(=O)N[C@@H](CCCCN)C(=O)N[C@@H](CCCCN)C(=O)N[C@@H](CCC(=O)O)C(=O)N[C@@H](Cc2ccccc2)C(=O)N[C@@H](CCCCN)C(=O)N[C@@H](C)C(=O)NCC(N)=O)NC(=O)C(C)(C)NC(=O)[C@H](CCCCN)NC(=O)[C@H](Cc2ccccc2)NC(=O)[C@H](C(C)C)NC(=O)[C@H](CO)NC(=O)CNC(=O)[C@@H]2CCCN2C(=O)[C@H](C(C)C)NC(=O)[C@H](CC(N)=O)NC(=O)[C@H](CO)NC(=O)[C@H](Cc2c[nH]cn2)NC(=O)[C@H](Cc2c[nH]cn2)NC(=O)[C@H](C)NC(=O)[C@H](CCC(N)=O)NC(=O)[C@H](CCCCN)NC(=O)[C@H](CCC(N)=O)NC1=O [SEQ ID NO 253] | 9.00 to 11.00 | 9.00 to 11.00
CDATCQFRKAIDDCAKASWHSNVPGSVFKSCMKQKKKEWKAGH-NH2 (disulfide 1-5, 14-31) [compound 1] | > 11.00 | 9.00 to 11.00
CC[C@H](C)[C@H](NC(=O)[C@H](C)NC(=O)[C@H](CCCCN)NC(=O)[C@H](CCCNC(=N)N)NC(=O)[C@H](Cc1ccccc1)NC(=O)[C@H](CCC(N)=O)NC(=O)[C@@H]1CSSC[C@H](N)C(=O)N[C@@H](CC(=O)O)C(=O)N[C@@H](C)C(=O)N[C@@H]([C@@H](C)O)C(=O)N1)C(=O)N[C@@H](CC(=O)O)C(=O)N[C@@H](CC(=O)O)C(=O)N[C@H]1CSSC[C@@H](C(=O)N[C@@H](CCSC)C(=O)N[C@@H](CCCCN)C(=O)N[C@@H](CCC(N)=O)C(=O)N[C@@H](CCCCN)C(=O)N[C@@H](CCCCN)C(=O)N[C@@H](CCCCN)C(=O)N[C@@H](CCC(=O)O)C(=O)N[C@@H](Cc2ccccc2)C(=O)N[C@@H](CCCCN)C(=O)N[C@@H](C)C(=O)NCC(=O)N[C@@H](Cc2c[nH]cn2)C(=O)O)NC(=O)[C@H](C)NC(=O)[C@H](CCCCN)NC(=O)[C@H](Cc2ccccc2)NC(=O)[C@H](C(C)C)NC(=O)[C@H](CO)NC(=O)[C@H](CO)NC(=O)[C@H](Cc2c[nH]cn2)NC(=O)[C@H](Cc2ccc(O)cc2)NC(=O)[C@H](C)NC(=O)[C@H](CCC(N)=O)NC(=O)[C@H](CCCNC(=N)N)NC(=O)[C@H](C)NC1=O [compound 35] (H-CDATCQFRKAIDDCARQAYHSSVFKACMKQKKKEFKAGH-OH; disulfide 1-5, 14-27) | 9.00 to 11.00 | 9.00 to 11.00
CDATCQFRKAIDDCVRQAHHSNVPGSVFKACMKQKKKEWKAGY (disulfide 1-5, 14-31) [SEQ ID NO 86] | 9.00 to 11.00 | 9.00 to 11.00
CDATCQFRKAIDDCYYRSWHSNVPGSVFKACMKFRFNVWKAG-NH2 (disulfide 1-5, 14-31) [compound 67] | 9.00 to 11.00 | 7.00 to 9.00
CDATCQFRKAIDDCFWLASHSNVPGSVWKACMKQKKKEFKAG-NH2 (disulfide 1-5, 14-31) [compound 119] | 9.00 to 11.00 | 9.00 to 11.00
CDATCQFRKAIDDCVRQAYHSNVPGSVFKACMKQKKKEWKAGH (disulfide 1-5, 14-31) [compound 84] | 9.00 to 11.00 | 9.00 to 11.00
CC[C@H](C)[C@H](NC(=O)[C@H](C)NC(=O)[C@H](CCCCN)NC(=O)[C@H](CCCNC(=N)N)NC(=O)[C@H](Cc1ccccc1)NC(=O)[C@H](CCC(N)=O)NC(=O)[C@@H]1CSSC[C@H](N)C(=O)N[C@@H](CC(=O)O)C(=O)N[C@@H](C)C(=O)N[C@@H]([C@@H](C)O)C(=O)N1)C(=O)N[C@@H](CC(=O)O)C(=O)N[C@@H](CC(=O)O)C(=O)N[C@H]1CSSC[C@@H](C(=O)N[C@@H](CCSC)C(=O)N[C@@H](CCCCN)C(=O)N[C@@H](CCC(N)=O)C(=O)N[C@@H](CCCCN)C(=O)N[C@@H](CCCCN)C(=O)N[C@@H](CCCCN)C(=O)N[C@@H](CCC(=O)O)C(=O)N[C@@H](Cc2c[nH]c3ccccc23)C(=O)N[C@@H](CCCCN)C(=O)N[C@@H](C)C(=O)NCC(=O)N[C@@H](Cc2c[nH]cn2)C(=O)O)NC(=O)[C@H](C)NC(=O)[C@H](CCCCN)NC(=O)[C@H](Cc2ccccc2)NC(=O)[C@H](C(C)C)NC(=O)[C@H](CO)NC(=O)[C@H](CO)NC(=O)[C@H](Cc2c[nH]cn2)NC(=O)[C@H](Cc2c[nH]c3ccccc23)NC(=O)[C@H](CO)NC(=O)[C@H](CCCNC(=N)N)NC(=O)[C@H](Cc2ccc(O)cc2)NC(=O)[C@H](Cc2ccc(O)cc2)NC1=O [compound 72] (H-CDATCQFRKAIDDCYYRSWHSSVFKACMKQKKKEWKAGH-OH; disulfide 1-5, 14-27) | 9.00 to 11.00 | 9.00 to 11.00

Reference: patent US20210395313A1, “PEPTIDE PAC1 ANTAGONISTS” (AMGEN INC., priority 2017, published 2021)
